Where a name gives a salt, the structure may show the parent alone.

KRas G12C, sequence (P01116 1-188 isoform P01116-2 G12C): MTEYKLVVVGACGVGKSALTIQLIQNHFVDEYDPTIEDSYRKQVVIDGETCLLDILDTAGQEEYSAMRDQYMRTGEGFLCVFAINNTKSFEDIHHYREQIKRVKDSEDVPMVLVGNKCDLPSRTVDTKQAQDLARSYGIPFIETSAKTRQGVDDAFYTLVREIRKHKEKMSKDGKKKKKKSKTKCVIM

This experiment deals with KRas G12C (Homo sapiens, UniProt P01116, G12C). Description: Cellular inhibition of KRas G12C measured by Phospho-ERK in NCI-H358 cells. In kind it is cell-based. The settings on record: pERK(Thr202/Tyr204) normalized with GAPDH, NCI-H358 cells, 3 hours; read-out: IC50. Summed up:
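Following 8-12 h attachment, NCI-H358 cells got serially diluted compound (0.5% DMSO) for 3 hours. Cells were then fixed, permeabilized with cold methanol, and stained for pERK(Thr202/Tyr204) and GAPDH. Ratios were converted to percent of DMSO control, with IC50 obtained by four-parameter regression.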
Consider `C=CC(=O)N1CCN(c2nc(OCC3CCN(CCOC)C3)nc3c2CCN(c2cc(O)cc4ccccc24)C3)CC1` (stereo not drawn) [Example 103, 1-(4-(7-(3-hydroxynaphthalen-1-yl)-2-((1-(2-methoxyethyl)pyrrolidin-3-yl)methoxy)-5,6,7,8-tetrahydropyrido[3,4-d]pyrimidin-4-yl)piperazin-1-yl)prop-2-en-1-one], for which the IC50 lay within 0.0001 to 1 µM.
For `CC#CC(=O)N1CCN(c2nc(OC[C@@H]3CCCN3C)nc3c2CCN(c2cccc(C)c2C)C3)C[C@@H]1CC#N` [Example 389, 2-((S)-1-(but-2-ynoyl)-4-(7-(2,3-dimethylphenyl)-2-(((S)-1-methylpyrrolidin-2-yl)methoxy)-5,6,7,8-tetrahydropyrido[3,4-d]pyrimidin-4-yl)piperazin-2-yl)acetonitrile], the IC50 is greater than 1 µM.
Then `Cc1cc2[nH]ncc2c(N2CCc3c(nc(OC[C@@H]4CC(F)(F)CN4C)nc3N3CCN(C(=O)/C=C/CF)[C@@H](CC#N)C3)C2)c1C` [Example 614, 2-((S)-4-(2-(((S)-4,4-difluoro-1-methylpyrrolidin-2-yl)methoxy)-7-(5,6-dimethyl-1H-indazol-4-yl)-5,6,7,8-tetrahydropyrido[3,4-d]pyrimidin-4-yl)-1-((E)-4-fluorobut-2-enoyl)piperazin-2-yl)acetonitrile], with 0.0001 to 1 µM; and `C=CC(=O)N1CCN(c2nc(OC[C@@H]3CCCN3C)nc3c2CCN(c2cc(F)ccc2OC(F)(F)F)C3)CC1CC#N` (stereo partly drawn) [Example 225], with 0.0001 to 1 µM.
Then `C=C(F)C(=O)N1CCN(c2nc(OC[C@@H]3CCCN3C)nc3c2CCN(c2c(C)c(C)cc4[nH]ncc24)C3)C[C@@H]1CC#N` [Example 521, 2-[(2S)-4-[7-(5,6-dimethyl-1H-indazol-4-yl)-2-[[(2S)-1-methylpyrrolidin-2-yl]methoxy]-6,8-dihydro-5H-pyrido[3,4-d]pyrimidin-4-yl]-1-(2-fluoroprop-2-enoyl)piperazin-2-yl]acetonitrile], with 0.0001 to 1 µM; and `C=CC(=O)N1CCN(c2nc(OCCc3ccccn3)nc3c2CCN(c2cc(O)cc4ccccc24)C3)CC1` [Example 126, 1-(4-(7-(3-hydroxynaphthalen-1-yl)-2-(2-(pyridin-2-yl)ethoxy)-5,6,7,8-tetrahydropyrido[3,4-d]pyrimidin-4-yl)piperazin-1-yl)prop-2-en-1-one trifluoroacetate], with greater than 1 µM.
On to `C=CC(=O)N1CCN(c2nc(OC[C@@H]3CCC(C)(C)N3C)nc3c2CCN(c2cccc4ccccc24)C3)CC1CC#N` (stereo partly drawn) [Example 301, 2-[4-[7-(1-naphthyl)-2-[[(2S)-1,5,5-trimethylpyrrolidin-2-yl]methoxy]-6,8-dihydro-5H-pyrido[3,4-d]pyrimidin-4-yl]-1-prop-2-enoyl-piperazin-2-yl]acetonitrile], for which the IC50 is 0.0001 to 1 µM.
Take `C=CC(=O)N1CCN(c2nc(OC[C@@H]3CCCN3C)nc3c2CCN(c2cccc4cccc(CC)c24)C3)C[C@@H]1CC#N` [Example 360, 2-[(2S)-4-[7-(8-ethyl-1-naphthyl)-2-[[(2S)-1-methylpyrrolidin-2-yl]methoxy]-6,8-dihydro-5H-pyrido[3,4-d]pyrimidin-4-yl]-1-prop-2-enoyl-piperazin-2-yl]acetonitrile]: the IC50 was 0.0001 to 1 µM.
To `C=CC(=O)N1CCN(c2nc(OC[C@@H]3CCCN3C)nc3c2CCN(c2c(C)c(C)cc4[nH]ncc24)C3)CC1` [Example 453, 1-[4-[7-(5,6-dimethyl-1H-indazol-4-yl)-2-[[(2S)-1-methylpyrrolidin-2-yl]methoxy]-6,8-dihydro-5H-pyrido[3,4-d]pyrimidin-4-yl]piperazin-1-yl]prop-2-en-1-one] belongs 0.0001 to 1 µM; to `C=CC(=O)N1CCN(c2ncnc3c2CCN(c2cc(O)cc4ccccc24)C3)CC1` [Example 1, 1-(4-(7-(3-hydroxynaphthalen-1-yl)-5,6,7,8-tetrahydropyrido[3,4-d]pyrimidin-4-yl)piperazin-1-yl)prop-2-en-1-one], greater than 1 µM.
To `C=CC(=O)N1C[C@H]2CC[C@@H](C1)N2c1nc(OC(C)CN(C)C)nc2c1CCN(c1cc(O)cc3ccccc13)C2` (stereo partly drawn) [Example 46, 1-((1R,5S)-8-(2-((1-(dimethylamino)propan-2-yl)oxy)-7-(3-hydroxynaphthalen-1-yl)-5,6,7,8-tetrahydropyrido[3,4-d]pyrimidin-4-yl)-3,8-diazabicyclo[3.2.1]octan-3-yl)prop-2-en-1-one] belongs greater than 1 µM.
As to `C=CC(=O)N1CCN(c2nc(O[C@H](C)CN3CCN(C(C)=O)CC3)nc3c2CCN(c2cc(O)cc4ccccc24)C3)CC1` [Example 36, (R)-1-(4-(2-((1-(4-acetylpiperazin-1-yl)propan-2-yl)oxy)-7-(3-hydroxynaphthalen-1-yl)-5,6,7,8-tetrahydropyrido[3,4-d]pyrimidin-4-yl)piperazin-1-yl)prop-2-en-1-one], the IC50 was greater than 1 µM.
To `C=CC(=O)N1CCN(c2nc(OC[C@H]3CCCN3C)nc3c2CCN(c2cc(O)cc4ccccc24)C3)C[C@@H]1CC#N` [Example 344, 2-[(2S)-4-[7-(3-hydroxy-1-naphthyl)-2-[[(2R)-1-methylpyrrolidin-2-yl]methoxy]-6,8-dihydro-5H-pyrido[3,4-d]pyrimidin-4-yl]-1-prop-2-enoyl-piperazin-2-yl]acetonitrile] belongs 0.0001 to 1 µM; to `C=CC(=O)N1CCN(c2nc(OC[C@H]3CCCN3C)nc3c2CCN(c2cc(O)cc4ccccc24)C3)[C@@H](C)C1` [Example 203, 1-((S)-4-(7-(3-hydroxynaphthalen-1-yl)-2-(((R)-1-methylpyrrolidin-2-yl)methoxy)-5,6,7,8-tetrahydropyrido[3,4-d]pyrimidin-4-yl)-3-methylpiperazin-1-yl)prop-2-en-1-one], 0.0001 to 1 µM.
To `C=CC(=O)N1CCN(c2nc(OCCN(C)C)nc3c2CCN(c2cc(O)cc4ccccc24)C3)C[C@H]1C` [Example 15, (R)-1-(4-(2-(2-(dimethylamino)ethoxy)-7-(3-hydroxynaphthalen-1-yl)-5,6,7,8-tetrahydropyrido[3,4-d]pyrimidin-4-yl)-2-methylpiperazin-1-yl)prop-2-en-1-one] belongs greater than 1 µM; to `C=CC(=O)N1CCN(c2nc(OC[C@@H]3CCCN3C)nc3c2CCN(c2ccccc2OC(F)(F)F)C3)CC1CC#N` (stereo partly drawn) [Example 211, 2-(1-acryloyl-4-(2-(((S)-1-methylpyrrolidin-2-yl)methoxy)-7-(2-(trifluoromethoxy)phenyl)-5,6,7,8-tetrahydropyrido[3,4-d]pyrimidin-4-yl)piperazin-2-yl)acetonitrile], 0.0001 to 1 µM.
To `C=CC(=O)N1CCN(c2nc(OC[C@@H]3CCCN3C)nc3c2CCN(c2cncc4ccccc24)C3)CC1CC#N` (stereo partly drawn) [Example 291, 2-[4-[7-(4-isoquinolyl)-2-[[(2S)-1-methylpyrrolidin-2-yl]methoxy]-6,8-dihydro-5H-pyrido[3,4-d]pyrimidin-4-yl]-1-prop-2-enoyl-piperazin-2-yl]acetonitrile] belongs 0.0001 to 1 µM; to `C=CC(=O)N1CCN(c2nc(O[C@H](C)CN3CC[C@H](OC)C3)nc3c2CCN(c2cc(O)cc4ccccc24)C3)CC1` [Example 64, 1-(4-(7-(3-hydroxynaphthalen-1-yl)-2-(((R)-1-((S)-3-methoxypyrrolidin-1-yl)propan-2-yl)oxy)-5,6,7,8-tetrahydropyrido[3,4-d]pyrimidin-4-yl)piperazin-1-yl)prop-2-en-1-one], 0.0001 to 1 µM.
Turning to `C=CC(=O)N1CCN(c2nc(OC[C@@H]3CCCN3C)nc3c2CCN(c2ccncc2C)C3)C[C@@H]1CC#N` [Example 345, 2-[(2S)-4-[7-(3-methyl-4-pyridyl)-2-[[(2S)-1-methylpyrrolidin-2-yl]methoxy]-6,8-dihydro-5H-pyrido[3,4-d]pyrimidin-4-yl]-1-prop-2-enoyl-piperazin-2-yl]acetonitrile], the IC50 is greater than 1 µM.
To `C=CC(=O)N1CCN(c2nc(OC[C@H]3CCCN3C)nc3c2CCN(c2c(C(F)(F)F)ccc4[nH]ncc24)C3)CC1CC#N` (stereo partly drawn) [Example 243, 2-[4-[2-[[(2R)-1-methylpyrrolidin-2-yl]methoxy]-7-[5-(trifluoromethyl)-1H-indazol-4-yl]-6,8-dihydro-5H-pyrido[3,4-d]pyrimidin-4-yl]-1-prop-2-enoyl-piperazin-2-yl]acetonitrile] belongs 0.0001 to 1 µM.
Then `CN(C)C/C=C/C(=O)N1CCN(c2nc(OC[C@@H]3C[C@@H](O)CN3C)nc3c2CCN(c2cccc(F)c2C(F)(F)F)C3)C[C@@H]1CC#N` [Example 342, 2-[(2S)-1-[(E)-4-(dimethylamino)but-2-enoyl]-4-[7-[3-fluoro-2-(trifluoromethyl)phenyl]-2-[[(2S,4R)-4-hydroxy-1-methyl-pyrrolidin-2-yl]methoxy]-6,8-dihydro-5H-pyrido[3,4-d]pyrimidin-4-yl]piperazin-2-yl]acetonitrile], with 0.0001 to 1 µM.
On to `C=CC(=O)N1CCN(c2nc(OCCO)nc3c2CCN(c2cc(O)cc4ccccc24)C3)CC1` [Example 142, 1-[4-[2-(2-hydroxyethoxy)-7-(3-hydroxy-1-naphthyl)-6,8-dihydro-5H-pyrido[3,4-d]pyrimidin-4-yl]piperazin-1-yl]prop-2-en-1-one], for which the IC50 is greater than 1 µM.
Then `C=CC(=O)N1CCN(c2nc(OC[C@@H]3C[C@@H](F)CN3C)nc3c2CCN(c2cccc4ccccc24)C3)C[C@@H]1CC#N` [Example 306, 2-((S)-1-acryloyl-4-(2-(((2S,4R)-4-fluoro-1-methylpyrrolidin-2-yl)methoxy)-7-(naphthalen-1-yl)-5,6,7,8-tetrahydropyrido[3,4-d]pyrimidin-4-yl)piperazin-2-yl)acetonitrile], with 0.0001 to 1 µM; and `C=CC(=O)N1CCN(c2nc(OC[C@H]3C[C@H](F)CN3C)nc3c2CCN(c2cccc(F)c2C(F)(F)F)C3)CC1CC#N` (stereo partly drawn) [Example 417, 2-(1-acryloyl-4-(2-(((2R,4S)-4-fluoro-1-methylpyrrolidin-2-yl)methoxy)-7-(3-fluoro-2-(trifluoromethyl)phenyl)-5,6,7,8-tetrahydropyrido[3,4-d]pyrimidin-4-yl)piperazin-2-yl)acetonitrile], with 0.0001 to 1 µM.

In general, IC50 refers to the concentration at which inhibition is half-maximal.

Source of the values: patent publication US10689377B2 (Mirati Therapeutics, Inc., priority 2017, dated 2020).
